This passage reports remaining activity results from publication doi:10.1101/2024.08.13.607785v1 (biorxiv, 2024).

Molecules are shown by their SMILES. Like-named read-outs stand apart in the source and are kept apart here.

Common to all, as to assay: biochemical
The target in assay [1] is Cyclin-dependent kinase 8 ; CDK8 ; P49336 (Homo sapiens, UniProt P49336). The arrangement: species or system mixed lysate of K562, MV4-11, THP-1, NCI-H1155.
For assay [2], the target named is Isoform 4 of TRAF2 and NCK-interacting protein kinase ; TNIK ; Q9UKE5-4 (Homo sapiens, UniProt Q9UKE5). The arrangement: species or system mixed lysate of K562, MV4-11, THP-1, NCI-H1155.
Assay [3] has as its target Isoform 2 of Cyclin-dependent kinase 17 ; CDK17 ; Q00537-2 (Homo sapiens, UniProt Q00537). The arrangement: species or system mixed lysate of K562, MV4-11, THP-1, NCI-H1155.
Assay [4] deals with Cyclin-dependent kinase 4 ; CDK4 ; P11802 (Homo sapiens, UniProt P11802). The arrangement: species or system mixed lysate of K562, MV4-11, THP-1, NCI-H1155.
For assay [5], the target named is Mast/stem cell growth factor receptor Kit ; KIT ; P10721 (Homo sapiens, UniProt P10721). The arrangement: species or system mixed lysate of K562, MV4-11, THP-1, NCI-H1155.
The target in assay [6] is Glycogen synthase kinase-3 alpha ; GSK3A ; P49840 (Homo sapiens, UniProt P49840). Details: species or system mixed lysate of K562, MV4-11, THP-1, NCI-H1155.
Assay [7] has as its target Serine/threonine-protein kinase ULK3 ; ULK3 ; Q6PHR2 (Homo sapiens, UniProt Q6PHR2). The arrangement: species or system human cell line lysate.
Assay [8] concerns the target Glycosaminoglycan xylosylkinase ; FAM20B ; O75063 (Homo sapiens, UniProt O75063). Details: species or system human cell line lysate.
The target in assay [9] is Phosphatidylinositol 4,5-bisphosphate 3-kinase catalytic subunit delta ; PIK3CD ; O00329 (Homo sapiens, UniProt O00329). The arrangement: species or system human cell line lysate.
For assay [10], the target named is Serine/threonine-protein kinase ULK2 ; ULK2 ; Q8IYT8 (Homo sapiens, UniProt Q8IYT8). The arrangement: species or system human cell line lysate.
Assay [11] concerns the target Citron Rho-interacting kinase ; CIT ; O14578 (Homo sapiens, UniProt O14578). The arrangement: species or system human cell line lysate.
The target of assay [12] is Serine/threonine-protein kinase Nek9 ; NEK9 ; Q8TD19 (Homo sapiens, UniProt Q8TD19). Details: species or system human cell line lysate.
The target of assay [13] is Serine/threonine-protein kinase N2 ; PKN2 ; Q16513 (Homo sapiens, UniProt Q16513). Details: species or system human cell line lysate.
Assay [14] has as its target Serine/threonine-protein kinase 17B ; STK17B ; O94768 (Homo sapiens, UniProt O94768). The arrangement: species or system human cell line lysate.
In assay [15] the target is Tyrosine-protein kinase Fes/Fps ; FES ; P07332 (Homo sapiens, UniProt P07332). The arrangement: species or system human cell line lysate.
Assay [16] addresses Mitogen-activated protein kinase kinase kinase kinase 1 ; MAP4K1 ; Q92918 (Homo sapiens, UniProt Q92918). Details: species or system human cell line lysate.
In assay [17] the target is Serine/threonine-protein kinase PLK1 ; PLK1 ; P53350 (Homo sapiens, UniProt P53350). Details: species or system human cell line lysate.
In assay [18] the target is Dual specificity protein kinase CLK1 ; CLK1 ; P49759 (Homo sapiens, UniProt P49759). Details: species or system human cell line lysate.
Assay [19] has as its target Tyrosine-protein kinase Fer ; FER ; P16591 (Homo sapiens, UniProt P16591). Details: species or system human cell line lysate.
Assay [20] deals with Serine/threonine-protein kinase ATR ; ATR ; Q13535 (Homo sapiens, UniProt Q13535). The arrangement: species or system human cell line lysate.
Assay [21] has as its target Tyrosine-protein kinase Mer ; MERTK ; Q12866 (Homo sapiens, UniProt Q12866). Details: species or system human cell line lysate.
Assay [22] addresses BMP-2-inducible protein kinase ; BMP2K ; Q9NSY1 (Homo sapiens, UniProt Q9NSY1). The arrangement: species or system human cell line lysate.
The mark [23] stands for this setting: read-out: BAY-1143572 (10 µM) / %Intensity relative to DMSO.
Setting [24] is: read-out: BAY-1251152 (10 µM) / %Intensity relative to DMSO.

Chain of Isoform 4 of TRAF2 and NCK-interacting protein kinase ; TNIK ; Q9UKE5-4 (Q9UKE5 whole entry, canonical isoform, one chain of several): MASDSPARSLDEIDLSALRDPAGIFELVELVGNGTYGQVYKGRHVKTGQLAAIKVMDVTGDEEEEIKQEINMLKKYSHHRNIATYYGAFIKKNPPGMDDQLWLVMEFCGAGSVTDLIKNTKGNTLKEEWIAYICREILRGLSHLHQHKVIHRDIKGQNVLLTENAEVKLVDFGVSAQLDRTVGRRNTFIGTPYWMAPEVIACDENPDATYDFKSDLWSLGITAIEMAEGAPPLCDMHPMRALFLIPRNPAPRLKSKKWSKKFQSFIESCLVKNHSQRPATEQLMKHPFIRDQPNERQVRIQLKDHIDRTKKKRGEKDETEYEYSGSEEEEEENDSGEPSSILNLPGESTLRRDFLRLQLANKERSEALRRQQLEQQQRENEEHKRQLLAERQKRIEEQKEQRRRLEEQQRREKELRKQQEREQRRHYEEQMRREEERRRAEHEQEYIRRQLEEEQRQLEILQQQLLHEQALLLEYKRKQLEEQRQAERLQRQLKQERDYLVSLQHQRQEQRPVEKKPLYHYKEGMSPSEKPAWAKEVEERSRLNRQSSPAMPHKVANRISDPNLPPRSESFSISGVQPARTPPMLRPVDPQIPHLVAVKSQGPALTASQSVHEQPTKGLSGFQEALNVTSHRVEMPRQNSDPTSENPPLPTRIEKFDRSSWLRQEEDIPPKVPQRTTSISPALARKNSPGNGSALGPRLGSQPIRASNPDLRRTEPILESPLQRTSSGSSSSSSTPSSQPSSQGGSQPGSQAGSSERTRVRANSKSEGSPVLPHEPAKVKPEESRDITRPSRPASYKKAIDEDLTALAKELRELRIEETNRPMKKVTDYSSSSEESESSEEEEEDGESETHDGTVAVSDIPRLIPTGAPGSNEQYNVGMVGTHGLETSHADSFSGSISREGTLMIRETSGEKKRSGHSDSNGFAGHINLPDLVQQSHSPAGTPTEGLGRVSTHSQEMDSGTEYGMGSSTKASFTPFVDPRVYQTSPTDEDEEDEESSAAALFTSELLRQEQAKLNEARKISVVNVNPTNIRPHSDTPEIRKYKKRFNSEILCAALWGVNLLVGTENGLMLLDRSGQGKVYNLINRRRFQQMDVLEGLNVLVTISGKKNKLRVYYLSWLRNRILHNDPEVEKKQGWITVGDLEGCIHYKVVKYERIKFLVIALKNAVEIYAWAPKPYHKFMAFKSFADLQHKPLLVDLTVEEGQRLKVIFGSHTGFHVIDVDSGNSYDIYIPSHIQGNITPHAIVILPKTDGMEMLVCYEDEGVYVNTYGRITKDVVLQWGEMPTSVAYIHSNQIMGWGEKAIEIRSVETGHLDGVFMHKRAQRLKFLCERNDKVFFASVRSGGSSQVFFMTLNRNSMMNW
Chain of Serine/threonine-protein kinase ULK3 ; ULK3 ; Q6PHR2 (Q6PHR2 whole entry, one chain of several): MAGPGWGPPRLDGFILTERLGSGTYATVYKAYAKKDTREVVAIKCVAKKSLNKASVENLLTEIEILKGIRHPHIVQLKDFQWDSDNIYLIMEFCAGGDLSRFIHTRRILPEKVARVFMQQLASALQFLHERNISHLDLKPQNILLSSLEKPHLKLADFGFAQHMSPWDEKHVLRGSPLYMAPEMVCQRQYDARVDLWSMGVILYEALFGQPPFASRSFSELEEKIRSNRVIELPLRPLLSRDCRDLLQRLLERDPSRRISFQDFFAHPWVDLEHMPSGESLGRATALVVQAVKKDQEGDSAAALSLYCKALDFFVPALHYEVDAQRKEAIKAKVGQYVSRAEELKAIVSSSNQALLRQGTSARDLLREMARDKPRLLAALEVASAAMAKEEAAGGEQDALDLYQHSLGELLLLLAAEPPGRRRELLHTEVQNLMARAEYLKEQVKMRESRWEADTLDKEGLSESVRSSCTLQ
Chain of Serine/threonine-protein kinase PLK1 ; PLK1 ; P53350 (P53350 whole entry, one chain of several): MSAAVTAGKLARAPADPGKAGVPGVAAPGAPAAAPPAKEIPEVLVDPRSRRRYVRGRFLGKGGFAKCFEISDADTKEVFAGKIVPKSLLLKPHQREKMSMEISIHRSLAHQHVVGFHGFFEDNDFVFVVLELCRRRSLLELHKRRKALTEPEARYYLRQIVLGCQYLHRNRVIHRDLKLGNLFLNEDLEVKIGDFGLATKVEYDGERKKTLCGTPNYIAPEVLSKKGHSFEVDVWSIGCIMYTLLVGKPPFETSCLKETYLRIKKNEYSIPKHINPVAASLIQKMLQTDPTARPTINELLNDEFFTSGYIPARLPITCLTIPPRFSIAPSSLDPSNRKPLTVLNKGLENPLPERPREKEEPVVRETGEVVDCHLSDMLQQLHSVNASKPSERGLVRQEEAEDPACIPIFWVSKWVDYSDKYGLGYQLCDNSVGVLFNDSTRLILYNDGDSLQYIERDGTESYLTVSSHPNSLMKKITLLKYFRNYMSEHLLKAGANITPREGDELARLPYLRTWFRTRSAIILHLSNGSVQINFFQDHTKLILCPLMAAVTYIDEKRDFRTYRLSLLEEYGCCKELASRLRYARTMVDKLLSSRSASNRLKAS
Chain of BMP-2-inducible protein kinase ; BMP2K ; Q9NSY1 (Q9NSY1 whole entry): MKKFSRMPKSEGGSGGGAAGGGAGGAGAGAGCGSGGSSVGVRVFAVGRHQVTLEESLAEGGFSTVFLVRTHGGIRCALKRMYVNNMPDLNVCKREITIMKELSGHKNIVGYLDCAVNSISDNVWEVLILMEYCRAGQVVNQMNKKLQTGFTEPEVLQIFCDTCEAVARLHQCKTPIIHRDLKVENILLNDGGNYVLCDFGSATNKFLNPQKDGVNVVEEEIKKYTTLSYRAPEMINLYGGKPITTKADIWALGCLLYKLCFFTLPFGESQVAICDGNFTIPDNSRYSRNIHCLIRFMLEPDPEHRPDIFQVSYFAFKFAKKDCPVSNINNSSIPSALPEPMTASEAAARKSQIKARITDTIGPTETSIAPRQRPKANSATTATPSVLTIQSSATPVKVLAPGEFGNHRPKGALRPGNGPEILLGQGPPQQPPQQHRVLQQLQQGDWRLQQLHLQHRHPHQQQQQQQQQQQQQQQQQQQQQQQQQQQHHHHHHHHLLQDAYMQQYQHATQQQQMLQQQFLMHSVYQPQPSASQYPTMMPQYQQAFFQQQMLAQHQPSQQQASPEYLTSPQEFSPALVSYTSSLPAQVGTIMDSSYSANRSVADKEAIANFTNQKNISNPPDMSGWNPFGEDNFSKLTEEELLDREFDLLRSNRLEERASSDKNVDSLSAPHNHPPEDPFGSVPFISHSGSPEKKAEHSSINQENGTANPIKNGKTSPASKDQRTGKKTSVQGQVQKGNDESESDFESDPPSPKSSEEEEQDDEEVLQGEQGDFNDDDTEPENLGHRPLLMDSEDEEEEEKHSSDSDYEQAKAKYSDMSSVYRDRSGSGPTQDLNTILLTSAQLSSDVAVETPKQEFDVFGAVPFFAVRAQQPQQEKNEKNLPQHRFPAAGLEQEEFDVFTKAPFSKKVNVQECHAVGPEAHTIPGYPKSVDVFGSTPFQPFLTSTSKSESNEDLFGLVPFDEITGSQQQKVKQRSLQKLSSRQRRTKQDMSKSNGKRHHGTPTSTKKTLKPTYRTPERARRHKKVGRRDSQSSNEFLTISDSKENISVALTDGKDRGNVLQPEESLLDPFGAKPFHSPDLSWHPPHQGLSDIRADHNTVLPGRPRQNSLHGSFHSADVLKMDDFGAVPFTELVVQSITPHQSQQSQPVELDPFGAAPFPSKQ
Chain of Serine/threonine-protein kinase N2 ; PKN2 ; Q16513 (Q16513 whole entry, one chain of several): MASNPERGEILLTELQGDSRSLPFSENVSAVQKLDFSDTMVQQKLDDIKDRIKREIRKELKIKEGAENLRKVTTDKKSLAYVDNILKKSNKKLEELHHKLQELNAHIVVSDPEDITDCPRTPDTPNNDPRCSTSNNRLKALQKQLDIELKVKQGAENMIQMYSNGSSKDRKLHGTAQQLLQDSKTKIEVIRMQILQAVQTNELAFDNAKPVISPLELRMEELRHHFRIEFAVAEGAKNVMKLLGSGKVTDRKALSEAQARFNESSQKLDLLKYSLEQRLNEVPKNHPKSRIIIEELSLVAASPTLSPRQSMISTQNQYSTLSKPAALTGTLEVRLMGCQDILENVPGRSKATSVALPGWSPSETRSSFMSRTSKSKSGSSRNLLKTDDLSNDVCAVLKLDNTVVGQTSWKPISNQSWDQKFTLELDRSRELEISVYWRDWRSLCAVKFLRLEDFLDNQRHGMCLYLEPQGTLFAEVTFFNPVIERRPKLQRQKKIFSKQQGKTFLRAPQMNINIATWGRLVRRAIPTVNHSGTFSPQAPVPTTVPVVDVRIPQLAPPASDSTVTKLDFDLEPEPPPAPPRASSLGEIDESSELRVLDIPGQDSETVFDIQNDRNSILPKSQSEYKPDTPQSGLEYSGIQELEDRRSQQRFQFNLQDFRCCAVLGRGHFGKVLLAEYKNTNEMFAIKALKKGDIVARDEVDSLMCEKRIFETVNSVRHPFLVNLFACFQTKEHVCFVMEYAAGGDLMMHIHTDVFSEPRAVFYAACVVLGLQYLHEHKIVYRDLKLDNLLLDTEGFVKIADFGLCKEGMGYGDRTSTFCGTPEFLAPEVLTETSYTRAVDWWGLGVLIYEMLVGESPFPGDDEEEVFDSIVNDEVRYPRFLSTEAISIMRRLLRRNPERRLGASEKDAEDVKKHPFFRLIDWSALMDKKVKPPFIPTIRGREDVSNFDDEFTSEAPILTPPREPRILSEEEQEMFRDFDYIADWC
Chain of Dual specificity protein kinase CLK1 ; CLK1 ; P49759 (P49759 whole entry): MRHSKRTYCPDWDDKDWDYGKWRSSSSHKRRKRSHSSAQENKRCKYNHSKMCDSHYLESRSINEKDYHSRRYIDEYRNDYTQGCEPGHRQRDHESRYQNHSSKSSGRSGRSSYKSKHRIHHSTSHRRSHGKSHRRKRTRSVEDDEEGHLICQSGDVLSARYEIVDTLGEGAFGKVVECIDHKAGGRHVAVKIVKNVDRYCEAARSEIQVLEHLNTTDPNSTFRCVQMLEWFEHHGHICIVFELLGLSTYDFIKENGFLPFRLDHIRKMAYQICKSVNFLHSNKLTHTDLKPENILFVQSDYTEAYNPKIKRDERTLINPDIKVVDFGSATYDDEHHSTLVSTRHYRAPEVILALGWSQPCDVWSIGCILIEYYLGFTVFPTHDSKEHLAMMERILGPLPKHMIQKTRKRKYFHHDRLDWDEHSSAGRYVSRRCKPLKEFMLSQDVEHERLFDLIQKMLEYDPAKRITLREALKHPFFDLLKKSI

`COc1cc(F)ccc1-c1ncnc(Nc2cccc(C[S@](C)(=N)=O)c2)n1` [BAY-1143572]: the remaining activity at 10 µM was 114% in [1] (setting [23]); 78.3% in assay [2] (setting [23]); 66.1% in assay [3] (setting [23]); 133% in assay [4] (setting [23]); 24.3% in assay [5] (setting [23]); 3.48% in [6] (setting [23]). Also, the remaining activity at 10 µM turned out to be 93.7% in assay [7] (setting [23]); 141% in [8] (setting [23]); 116% in assay [9] (setting [23]); 92.9% in [10] (setting [23]); 99.8% in assay [11] (setting [23]); 110% in assay [12] (setting [23]). Also, the remaining activity at 10 µM in assay [13] (setting [23]) amounted to 222%; in assay [14] (setting [23]), 90.7%; in [15] (setting [23]), 102%; in assay [16] (setting [23]) it was 101%; in assay [17] (setting [23]) it was 104%; in [18] (setting [23]) it was 116%. The remaining activity at 10 µM in assay [19] (setting [23]) stood at 112%; in assay [20] (setting [23]) it was 109%; in [21] (setting [23]) it was 86.5%; in assay [22] (setting [23]), 88.5%.

Consider `COc1cc(F)ccc1-c1cc(Nc2cc(CS(C)(=N)=O)ccn2)ncc1F` (centres unmarked) [BAY-1251152], for which the remaining activity at 10 µM in [1] (setting [24]) was 116%; in assay [2] (setting [24]), 37.2%; in assay [3] (setting [24]), 49.4%; in assay [4] (setting [24]), 121%; in [5] (setting [24]), 102%; in assay [6] (setting [24]) it was 5.28%. For the same compound, the remaining activity at 10 µM in assay [7] (setting [24]) is 94.5%; in [8] (setting [24]) it was 123%; in [9] (setting [24]), 113%; in assay [10] (setting [24]), 104%; in assay [11] (setting [24]), 92.5%; in assay [12] (setting [24]), 110%. Also, the remaining activity at 10 µM in assay [13] (setting [24]) amounted to 222%; in assay [14] (setting [24]), 108%; in [15] (setting [24]), 96.1%; in assay [16] (setting [24]), 71.6%; in assay [17] (setting [24]), 96.8%; in assay [18] (setting [24]), 104%. Further, the remaining activity at 10 µM in assay [19] (setting [24]) was 103%; in assay [20] (setting [24]), 70.1%; in assay [21] (setting [24]), 52.5%; in assay [22] (setting [24]), 84.7%.
